Source: patent publication US20220144854A1, “MACROCYCLIC COMPOUNDS” (ZENO MANAGEMENT, INC., priority 2019, published 2022)
Read-outs that look alike come from different tables or passages of the source.

Experiments:
[1] = tested on: NCI-H929 (ATCC CRL-9068) cells; test: NCI-H929 cell proliferation assay (CellTiter-Glo); type: cell-based; details: 72 h of compound treatment
Experimental: Cell proliferation was measured using the CellTiter-Glo® Luminescent Cell Viability Assay. The assay involved the addition of a single reagent (CellTiter-Glo® Reagent) directly to cells cultured in serum-supplemented medium.
Each compound evaluated was prepared as a DMSO stock solution (10 mM). Compounds were tested in duplicate on each plate, with a 10-point serial dilution curve (1:3 dilution). Compound treatment ([…]) was added from the compound dilution plate to the cell plate. The highest compound concentration was 10 μM (final), with a 0.1% final DMSO concentration. Plates were then incubated at 37° C., 5% CO2. After 72 h of compound treatment, cell plates were equilibrated at rt for approximately 30 mins. An equi-volume amount of CellTiter-Glo® Reagent (40 μL) was added to each well. Plates were mixed for 2 mins on an orbital shaker to induce cell lysis and then incubated at rt for 10 mins to stabilize the luminescent signal. Luminescence was recorded using an Envision plate reader according to CellTiter-Glo protocol. IC50 of each compound was calculated using GraphPad Prism by nonlinear regression analysis.

Mcl-1 = Mcl-1 (Homo sapiens, UniProt Q07820); test: Mcl-1 Homogeneous Time Resolved Fluorescence (HTRF) binding assay
[2] = HTRF, 4 nM Mcl-1, 100 nM FAM-Bak peptide, 10-dose, singlicate, read-out: Mcl-1 IC50

Chain of Mcl-1 (Q07820 whole entry): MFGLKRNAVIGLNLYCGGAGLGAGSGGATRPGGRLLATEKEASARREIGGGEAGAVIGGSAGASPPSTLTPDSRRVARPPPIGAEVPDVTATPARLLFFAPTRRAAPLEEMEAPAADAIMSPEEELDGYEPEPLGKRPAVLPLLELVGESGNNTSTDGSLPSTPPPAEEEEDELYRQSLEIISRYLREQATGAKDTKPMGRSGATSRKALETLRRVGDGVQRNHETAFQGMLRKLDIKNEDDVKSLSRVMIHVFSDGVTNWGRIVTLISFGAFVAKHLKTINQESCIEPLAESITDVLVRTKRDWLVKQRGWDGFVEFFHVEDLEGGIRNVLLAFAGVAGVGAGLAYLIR

IC50 ([1]; Homo sapiens) | IC50 (Mcl-1; Mcl-1 IC50 (nM)) | Compound | IC50 [1] | IC50 (Mcl-1; [2]) | IC50 ([1]; Homo sapiens, NCI-H929, 72 h)
 |  | Cn1nc2cc1CSc1cc(c3ccccc3c1)OCCCc1c(C(=O)O)n(C)c3c(c(Cl)ccc13)-c1c(nn(C)c1C#N)CSC2 (single isomer, unassigned) [Example 1A, (Z)-1^6-Chloro-2^5-cyano-1^1,2^1,6^1-trimethyl-1^1H,2^1H,6^1H-10-oxa-4,8-dithia-1(7,3)-indola-2(4,3),6(3,5)-dipyrazola-9(3,1)-naphthalenacyclotridecaphane-1^2-carboxylic acid] | 100 to 1000 nM | < 10 nM | 
 |  | Cn1nc2cc1CSc1cc(c3ccccc3c1)OCCCc1c(C(=O)O)n(C)c3c(c(Cl)ccc13)-c1c(nn(C)c1C#N)CSC2 (single isomer, unassigned) [Example 1B, (Z)-1^6-Chloro-2^5-cyano-1^1,2^1,6^1-trimethyl-1^1H,2^1H,6^1H-10-oxa-4,8-dithia-1(7,3)-indola-2(4,3),6(3,5)-dipyrazola-9(3,1)-naphthalenacyclotridecaphane-1^2-carboxylic acid] | > 1000 nM | > 100 nM | 
 |  | Cn1nc2cc1CSc1cc(c3ccccc3c1)OCCCc1c(C(=O)O)n(C)c3c(c(Cl)ccc13)-c1c(nn3c1CCCC3)CSC2 (single isomer, unassigned) [Example 2A, (Z)-1^6-Chloro-1^1,6^1-dimethyl-2^4,2^5,2^6,2^7-tetrahydro-1^1H,6^1H-10-oxa-4,8-dithia-2(3,2)-pyrazolo[1,5-a]pyridina-1(7,3)-indola-6(3,5)-pyrazola-9(3,1)-naphthalenacyclotridecaphane-1^2-carboxylic acid] | < 100 nM | < 10 nM | 
 |  | Cn1nc2cc1CSc1cc(c3ccccc3c1)OCCCc1c(C(=O)O)n(C)c3c(c(Cl)ccc13)-c1c(nn3c1CCCC3)CSC2 (single isomer, unassigned) [Example 2B, (Z)-1^6-Chloro-1^1,6^1-dimethyl-2^4,2^5,2^6,2^7-tetrahydro-1^1H,6^1H-10-oxa-4,8-dithia-2(3,2)-pyrazolo[1,5-a]pyridina-1(7,3)-indola-6(3,5)-pyrazola-9(3,1)-naphthalenacyclotridecaphane-1^2-carboxylic acid] | > 1000 nM | 10 to 100 nM | 
 |  | Cn1nc2cc1CSc1cc(c3ccccc3c1)OCCCc1c(C(=O)O)n(C)c3c(c(Cl)ccc13)-c1c(nn3c1CCC3)CSC2 (single isomer, unassigned) [Example 3A, (Z)-1^6-Chloro-1^1,6^1-dimethyl-2^5,2^6-dihydro-1^1H,2^4H,6^1H-10-oxa-4,8-dithia-1(7,3)-indola-2(3,2)-pyrrolo[1,2-b]pyrazola-6(3,5)-pyrazola-9(3,1)-naphthalenacyclotridecaphane-1^2-carboxylic acid] | < 100 nM | < 10 nM | 
 |  | Cn1nc2cc1CSc1cc(c3ccccc3c1)OCCCc1c(C(=O)O)n(C)c3c(c(Cl)ccc13)-c1c(nn3c1CCC3)CSC2 (single isomer, unassigned) [Example 3B, (Z)-1^6-Chloro-1^1,6^1-dimethyl-2^5,2^6-dihydro-1^1H,2^4H,6^1H-10-oxa-4,8-dithia-1(7,3)-indola-2(3,2)-pyrrolo[1,2-b]pyrazola-6(3,5)-pyrazola-9(3,1)-naphthalenacyclotridecaphane-1^2-carboxylic acid] | > 1000 nM | 10 to 100 nM | 
 |  | Cn1nc2cc1CSc1cc(c3ccccc3c1)OCCCc1c(C(=O)O)n(C)c3c(c(Cl)ccc13)-c1c(nn3c1COCC3)CSC2 (single isomer, unassigned) [Example 4A, (Z)-1^6-Chloro-1^1,6^1-dimethyl-2^6,2^7-dihydro-1^1H,2^4H,6^1H-10-oxa-4,8-dithia-2(3,2)-pyrazolo[5,1-c][1,4]oxazina-1(7,3)-indola-6(3,5)-pyrazola-9(3,1)-naphthalenacyclotridecaphane-1^2-carboxylic acid] | 100 to 1000 nM | < 10 nM | 
 |  | Cn1nc2cc1CSc1cc(c3ccccc3c1)OCCCc1c(C(=O)O)n(C)c3c(c(Cl)ccc13)-c1c(nn3c1COCC3)CSC2 (single isomer, unassigned) [Example 4B, (Z)-1^6-Chloro-1^1,6^1-dimethyl-2^6,2^7-dihydro-1^1H,2^4H,6^1H-10-oxa-4,8-dithia-2(3,2)-pyrazolo[5,1-c][1,4]oxazina-1(7,3)-indola-6(3,5)-pyrazola-9(3,1)-naphthalenacyclotridecaphane-1^2-carboxylic acid] | > 1000 nM | 10 to 100 nM | 
 |  | Cn1nc2cc1CSc1cc(c3ccccc3c1)OCCCc1c(C(=O)O)n(C)c3c(c(Cl)ccc13)-c1c(nn3c1CSC3)CSC2 (single isomer, unassigned) [Example 5A, (Z)-1^6-Chloro-1^1,6^1-dimethyl-1^1H,2^4H,2^6H,6^1H-10-oxa-4,8-dithia-2(3,2)-pyrazolo[1,5-c]thiazola-1(7,3)-indola-6(3,5)-pyrazola-9(3,1)-naphthalenacyclotridecaphane-1^2-carboxylic acid] | 100 to 1000 nM | < 10 nM | 
 |  | Cn1nc2cc1CSc1cc(c3ccccc3c1)OCCCc1c(C(=O)O)n(C)c3c(c(Cl)ccc13)-c1c(nn3c1CSC3)CSC2 (single isomer, unassigned) [Example 5B, (Z)-1^6-Chloro-1^1,6^1-dimethyl-1^1H,2^4H,2^6H,6^1H-10-oxa-4,8-dithia-2(3,2)-pyrazolo[1,5-c]thiazola-1(7,3)-indola-6(3,5)-pyrazola-9(3,1)-naphthalenacyclotridecaphane-1^2-carboxylic acid] | > 1000 nM | > 100 nM | 
 |  | Cc1[nH]nc2c1-c1c(Cl)ccc3c(c(C(=O)O)n(C)c13)CCCOc1cc(cc3ccccc13)SCc1cc(nn1C)CSC2 (single isomer, unassigned) [Example 6A, (Z)-1^6-Chloro-1^1,2^5,6^1-trimethyl-1^1H,2^1H,6^1H-10-oxa-4,8-dithia-1(7,3)-indola-2(4,3),6(3,5)-dipyrazola-9(3,1)-naphthalenacyclotridecaphane-1^2-carboxylic acid] | < 100 nM | < 10 nM | 
 |  | Cc1[nH]nc2c1-c1c(Cl)ccc3c(c(C(=O)O)n(C)c13)CCCOc1cc(cc3ccccc13)SCc1cc(nn1C)CSC2 (single isomer, unassigned) [Example 6B, (Z)-1^6-Chloro-1^1,2^5,6^1-trimethyl-1^1H,2^1H,6^1H-10-oxa-4,8-dithia-1(7,3)-indola-2(4,3),6(3,5)-dipyrazola-9(3,1)-naphthalenacyclotridecaphane-1^2-carboxylic acid] | > 1000 nM | 10 to 100 nM | 
 |  | Cc1[nH]nc2c1-c1c(F)ccc3c(c(C(=O)O)n(C)c13)CCCOc1cc(cc3ccccc13)SCc1cc(nn1C(C)C)CSC2 (single isomer, unassigned) [Example 7B, (Z)-1^6-Fluoro-6^1-isopropyl-1^1,2^5-dimethyl-1^1H,2^1H,6^1H-10-oxa-4,8-dithia-1(7,3)-indola-2(4,3),6(3,5)-dipyrazola-9(3,1)-naphthalenacyclotridecaphane-1^2-carboxylic acid] |  | < 10 nM | 
 |  | Cc1[nH]nc2c1-c1c(Cl)ccc3c(c(C(=O)O)n(C)c13)CCCOc1cc(cc3ccccc13)SCc1cc(nn1C(C)C)CSC2 (single isomer, unassigned) [Example 9A, (Z)-1^6-Chloro-6^1-isopropyl-1^1,2^5-dimethyl-1^1H,2^1H,6^1H-10-oxa-4,8-dithia-1(7,3)-indola-2(4,3),6(3,5)-dipyrazola-9(3,1)-naphthalenacyclotridecaphane-1^2-carboxylic acid] |  | < 10 nM | 100 to 1000 nM
 |  | Cc1c2c(nn1C)CSCc1cc(n(C(C)C)n1)CSc1cc(c3ccccc3c1)OCCCc1c(C(=O)O)n(C)c3c-2c(Cl)ccc13 (single isomer, unassigned) [Example 10A, (Z)-1^6-Chloro-6^1-isopropyl-1^1,2^1,2^5-trimethyl-1^1H,2^1H,6^1H-10-oxa-4,8-dithia-1(7,3)-indola-2(4,3),6(3,5)-dipyrazola-9(3,1)-naphthalenacyclotridecaphane-1^2-carboxylic acid] |  | < 10 nM | < 100 nM
< 100 nM | < 10 nM | Cc1c2c(nn1C)CSCc1cc(n[nH]1)CSc1cc(c3ccccc3c1)OCCCc1c(C(=O)O)n(C)c3c-2c(Cl)ccc13 (single isomer, unassigned) [Example 11B, (Z)-1^6-Chloro-1^1,2^1,2^5-trimethyl-1^1H,2^1H,6^1H-10-oxa-4,8-dithia-1(7,3)-indola-2(4,3),6(3,5)-dipyrazola-9(3,1)-naphthalenacyclotridecaphane-1^2-carboxylic acid] |  |  | 
 |  | (Z)-2^5-(tert-Butoxycarbonyl)-1^6-chloro-1^1,6^1-dimethyl-2^4,2^5,2^6,2^7-tetrahydro-1^1H,6^1H-10-oxa-4,8-dithia-2(3,2)-pyrazolo[1,5-a]pyrazina-1(7,3)-indola-6(3,5)-pyrazola-9(3,1)-naphthalenacyclotridecaphane-1^2-carboxylic acid [Example 22A] | 100 to 1000 nM |  | 
 |  | (Z)-2^5-(tert-Butoxycarbonyl)-1^6-chloro-1^1,6^1-dimethyl-2^4,2^5,2^6,2^7-tetrahydro-1^1H,6^1H-10-oxa-4,8-dithia-2(3,2)-pyrazolo[1,5-a]pyrazina-1(7,3)-indola-6(3,5)-pyrazola-9(3,1)-naphthalenacyclotridecaphane-1^2-carboxylic acid [Example 22B] | > 1000 nM |  | 
 |  | (Z)-6^1-Ethyl-1^6-fluoro-1^1,2^1,2^3-trimethyl-1^1H,2^1H,6^1H-10-oxa-4,8-dithia-1(7,3)-indola-2(4,5),6(3,5)-dipyrazola-9(3,1)-naphthalenacyclotridecaphane-1^2-carboxylic acid [Example 15B] | > 1000 nM |  | 
